Literature values in patent US20080112943A1, “Biosynthetic Polypeptide Fusion Inhibitors” (priority 2005, published 2008).

Columns and labels:
[1] = target: T1, N-formyl peptide receptor (Homo sapiens, UniProt P21462); conditions: human phagocytes
T1 construct: host or cells: human phagocytes (endogenous receptor)
T1 sequence (P21462 1-350): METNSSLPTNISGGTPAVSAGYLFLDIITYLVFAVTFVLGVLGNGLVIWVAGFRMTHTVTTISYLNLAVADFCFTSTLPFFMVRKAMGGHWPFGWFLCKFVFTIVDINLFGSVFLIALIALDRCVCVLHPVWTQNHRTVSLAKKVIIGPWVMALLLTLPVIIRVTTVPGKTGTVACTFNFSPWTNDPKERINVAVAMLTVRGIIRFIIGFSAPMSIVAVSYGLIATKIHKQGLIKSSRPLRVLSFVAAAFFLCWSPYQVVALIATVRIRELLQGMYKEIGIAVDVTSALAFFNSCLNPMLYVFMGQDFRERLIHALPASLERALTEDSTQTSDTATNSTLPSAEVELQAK

[2] = test system: monocytes and neutrophils
[3] = test system: HIV-1
[4] = in vitro studies and in animals

## enfuvirtide
[1]
  activation of the N-formyl peptide receptor: activates
[2]
  chemoattractant and activator of monocytes and neutrophils: chemoattractant and activator
[3]
  inhibition of HIV-1 mediated CD-4+ cell-cell fusion (i.e., syncytial formation) and infection of CD-4+ cells by cell-free virus: potent inhibitor
[4]
  toxicity: non-toxic
